Experimental data taken from ChEMBL document CHEMBL6114969, “Ultra-short lipopeptides containing d-amino acid exhibiting excellent stability and antibacterial activity against gram-positive bacteria” (Eur J Med Chem, 2025).
Converted amounts (≈) assume the structure as drawn. The source made the active and inactive calls. The rule behind the calls is not given here.

What was measured:
Staphylococcus aureus [1] = experiment: Antibacterial activity against methicillin-resistant Staphylococcus aureus ATCC 33591 incubated for 18 to 24 hrs in presence of 2 mg/ml of trypsin by broth microdilution method; assay type: functional; settings: time 18-24 hrs
Staphylococcus aureus [2] = experiment: Antibacterial activity against methicillin-resistant Staphylococcus aureus ATCC 33591 incubated for 18 to 24 hrs in presence of 0.5 mg/ml of chymotrypsin by broth microdilution method; assay type: functional; settings: time 18-24 hrs
Staphylococcus aureus [3] = experiment: Antibacterial activity against methicillin-resistant Staphylococcus aureus ATCC 33591 incubated for 18 to 24 hrs in presence of 2 mg/ml of chymotrypsin by broth microdilution method; assay type: functional; settings: time 18-24 hrs
Staphylococcus aureus [4] = experiment: Antibacterial activity against methicillin-resistant Staphylococcus aureus ATCC 33591 incubated for 18 to 24 hrs in presence of 1 mg/ml of pepsin by broth microdilution method; assay type: functional; settings: time 18-24 hrs
Staphylococcus aureus [5] = experiment: Antibacterial activity against methicillin-resistant Staphylococcus aureus ATCC 33591 assessed as fold change in MIC incubated for 18 to 24 hrs in presence of 10 percent FBS by broth microdilution method; assay type: functional; settings: time 18-24 hrs
Staphylococcus aureus [6] = experiment: Bactericidal activity against methicillin-resistant Staphylococcus aureus ATCC 33591 at 2 times MIC incubated for 6 hrs by time-kill assay relative to control; assay type: functional
Staphylococcus aureus [7] = experiment: Synergistic bactericidal activity against methicillin-resistant Staphylococcus aureus ATCC 33591 incubated for 18 to 24 hrs in presence of Polymyxin B by time-kill assay; assay type: functional, organism-based; settings: time 18-24 hrs
Staphylococcus aureus [8] = experiment: Synergistic bactericidal activity against persistent methicillin-resistant Staphylococcus aureus ATCC 33591 incubated for 18 to 24 hrs in presence of ciprofloxacin by time-kill assay; assay type: functional, organism-based; settings: time 18-24 hrs
Staphylococcus aureus [9] = experiment: Synergistic bactericidal activity against persistent methicillin-resistant Staphylococcus aureus ATCC 33591 incubated for 18 to 24 hrs in presence of polymyxin B by time-kill assay; assay type: functional, organism-based; settings: time 18-24 hrs
Staphylococcus aureus [10] = experiment: Inhibition of imipenem-induced drug resistance in methicillin-resistant Staphylococcus aureus ATCC 33591 at sub-MIC measured upto 15 passages; assay type: functional, organism-based
Staphylococcus aureus [11] = experiment: Induction of drug resistance in Staphylococcus aureus ATCC 25923 at sub-MIC measured after 15 passages; assay type: functional, organism-based
Staphylococcus aureus [12] = experiment: Inhibition of ciprofloxacin-induced drug resistance in Staphylococcus aureus ATCC 25923 at sub-MIC measured upto 15 passages; assay type: functional, organism-based
Staphylococcus aureus [13] = experiment: Antibacterial activity against gentamicin-resistant methicillin-resistant Staphylococcus aureus ATCC 33591 incubated for 18 to 24 hrs; assay type: functional; settings: time 18-24 hrs
Staphylococcus aureus [14] = experiment: Synergistic antibacterial activity against methicillin-resistant Staphylococcus aureus ATCC 33591 assessed as fractional inhibitory concentration index upto 2 times MIC incubated for 18 to 24 hrs in presence of polymyxin B by checkerboard assay; assay type: functional; settings: time 18-24 hrs
Staphylococcus aureus [15] = experiment: Bactericidal activity against methicillin-resistant Staphylococcus aureus ATCC 33591 at 4 times MIC incubated for 24 hrs in presence of 8 ug/ml LTA by absorbance based assay; assay type: functional, organism-based
Staphylococcus aureus [16] = experiment: Destruction of cell membrane in methicillin-resistant Staphylococcus aureus ATCC 33591 assessed as increase in red fluorescence intensity incubated for 2 hrs by PI staining based analysis; assay type: functional, organism-based
Staphylococcus aureus [17] = experiment: Induction of morphological changes in methicillin-resistant Staphylococcus aureus ATCC 33591 assessed as characteristic membrane rupture at 4 times MIC incubated for 2 hrs by SEM analysis; assay type: functional, organism-based
Staphylococcus aureus [18] = experiment: Induction of cell membrane damage in methicillin-resistant Staphylococcus aureus ATCC 33591 assessed as protein leakage at 2 to 8 times MIC measured upto 360 mins by absorbance based assay; assay type: functional, organism-based
[19] = Toxicity in Balb/c mouse assessed as survival rate at 80 mg/kg, ip measured after 7 days; assay type: organism-based; settings: in vivo, time 7 day
[20] = Toxicity in Balb/c mouse assessed as body weight change at 20 to 80 mg/kg, ip measured after 7 days; assay type: organism-based; settings: in vivo, 168 h, dose 20-80 mg/kg, time 7 day
[21] = Toxicity in Balb/c mouse assessed as change in lung co-efficient at 20 to 80 mg/kg, ip measured after 7 days; assay type: organism-based; settings: in vivo, 168 h, dose 20-80 mg/kg, time 7 day
[22] = Toxicity in Balb/c mouse assessed as organ edema at 20 to 80 mg/kg, ip measured after 7 days; assay type: organism-based; settings: in vivo, 168 h, dose 20-80 mg/kg, time 7 day
[23] = Toxicity in Balb/c mouse assessed as spleen atrophy at 80 mg/kg, ip measured after 7 days; assay type: organism-based; settings: in vivo, 168 h, time 7 day
[24] = Toxicity in Balb/c mouse assessed as kidney atrophy at 80 mg/kg, ip measured after 7 days; assay type: organism-based; settings: in vivo, 168 h, time 7 day
[25] = Toxicity in Balb/c mouse assessed as change in serum ALT level at 20 to 80 mg/kg, ip measured after 7 days; assay type: organism-based; settings: in vivo, 168 h, dose 20-80 mg/kg, time 7 day
[26] = Toxicity in Balb/c mouse assessed as change in serum AST level at 20 to 80 mg/kg, ip measured after 7 days; assay type: organism-based; settings: in vivo, 168 h, dose 20-80 mg/kg, time 7 day
[27] = Toxicity in Balb/c mouse assessed as cell swelling in kidney at 80 mg/kg, ip measured after 7 days by H and E staining based analysis; assay type: organism-based; settings: in vivo, 168 h, time 7 day
Staphylococcus aureus [28] = experiment: Antibacterial activity against methicillin-resistant Staphylococcus aureus ATCC 33591 infected in Balb/c mouse model of acute systemic infection assessed as reduction in bacterial count in lung at 10 mg/kg, ip measured after 5 days; assay type: functional, organism-based; settings: time 5.0 day
Staphylococcus aureus [29] = experiment: Antibacterial activity against methicillin-resistant Staphylococcus aureus ATCC 33591 infected in Balb/c mouse model of acute systemic infection assessed as reduction in bacterial count in kidney at 10 mg/kg, ip measured after 5 days; assay type: functional, organism-based; settings: time 5.0 day
Staphylococcus aureus [30] = experiment: Antibacterial activity against methicillin-resistant Staphylococcus aureus ATCC 33591 infected in Balb/c mouse model of acute systemic infection assessed as reduction in follicular structure loss in spleen at 10 mg/kg, ip measured after 5 days by H and E staining based analysis; assay type: functional, organism-based; settings: time 5.0 day
Staphylococcus aureus [31] = experiment: Antibacterial activity against methicillin-resistant Staphylococcus aureus ATCC 33591 infected in Balb/c mouse model of acute systemic infection assessed as reduction in hemorrhage in lung at 10 mg/kg, ip measured after 5 days by H and E staining based analysis; assay type: functional, organism-based; settings: time 5.0 day
Staphylococcus aureus [32] = experiment: Antibacterial activity against methicillin-resistant Staphylococcus aureus ATCC 33591 infected in Balb/c mouse model of acute systemic infection assessed as reduction in bleeding in kidney at 10 mg/kg, ip measured after 5 days by H and E staining based analysis; assay type: functional, organism-based; settings: time 5.0 day
Mus musculus = experiment: In vivo inhibition of inflammation in Balb/c mouse model of acute systemic infection infected with methicillin-resistant Staphylococcus aureus ATCC 33591 assessed as reduction in TNF-alpha activity at 10 mg/kg, ip measured after 5 days; assay type: functional, organism-based; settings: time 5.0 day
Staphylococcus aureus [33] = experiment: Antibacterial activity against methicillin-resistant Staphylococcus aureus ATCC 33591 infected in Balb/c mouse model of skin wound infection assessed as reduction in keratosis in wound surface at 10 mg/kg, ip administered thrice at 1, 24 and 48 hrs post-infection measured after 14 days by IHC analysis; assay type: functional, organism-based; settings: time 14.0 day
Staphylococcus aureus [34] = experiment: Antibacterial activity against methicillin-resistant Staphylococcus aureus ATCC 33591 infected in Balb/c mouse model of skin wound infection assessed as reduction in keratosis in wound surface at 10 mg/kg, ip administered thrice at 1, 24 and 48 hrs post-infection measured after 14 days in presence of polymyxin B by IHC analysis; assay type: functional, organism-based; settings: time 14.0 day

CCCCCCCCCCCC(=O)N[C@H](CCCNC(=N)N)C(=O)N[C@H](CCCNC(=N)N)C(=O)N[C@H](Cc1c[nH]c2ccccc12)C(=O)O
MIC (Staphylococcus aureus [1]): 4 µM | MIC (Staphylococcus aureus [2]): 4 µM | MIC (Staphylococcus aureus [3]): 4 µM | MIC (Staphylococcus aureus [4]): 8 µM | fold change (FC) (Staphylococcus aureus [5]): 8 | Activity (Staphylococcus aureus [6]): 100% | Activity (Staphylococcus aureus [7]): Active; Compound Exhibited Better Effect Than Compound Alone-Treatment; Although It Was Lower Than Polymyxin B, It Significantly Reduced Dosage Of Polymyxin B And Reduced Toxicity Of The Drug | Activity (Staphylococcus aureus [8]): Dose-dependent-effect | Activity (Staphylococcus aureus [9]): Dose-dependent-effect | inhibition (Staphylococcus aureus [10]): Active | Activity (Staphylococcus aureus [11]): inactive | inhibition (Staphylococcus aureus [12]): Active | MIC (Staphylococcus aureus [13]): 8 µM (≈ 5.59 µg/mL) | fractional inhibitory concentration index (FICI) (Staphylococcus aureus [14]): 0.125 | Activity (Staphylococcus aureus [15]): inactive | Activity (Staphylococcus aureus [16]): Dose-dependent-effect | Activity (Staphylococcus aureus [17]): Active | Activity (Staphylococcus aureus [18]): Active | survival at 168 h [19]: 75% | Activity [20]: Non-toxic | Activity [21]: Non-toxic | Activity [22]: Toxic | Activity [23]: Toxic | Activity [24]: Toxic | Activity [25]: Non-toxic | Activity [26]: Non-toxic | Activity [27]: Toxic | Activity (Staphylococcus aureus [28]): Active | Activity (Staphylococcus aureus [29]): Active | Activity (Staphylococcus aureus [30]): Active | Activity (Staphylococcus aureus [31]): Active | Activity (Staphylococcus aureus [32]): Active | inhibition (Mus musculus): Active | Activity (Staphylococcus aureus [33]): Active | Activity (Staphylococcus aureus [34]): Active
